Measured values taken from PubChem BioAssay AID248 (DTP/NCI, 2004).
Where “and” joins values, the source holds several entries; their conditions need not be identical. Equal values may be shown once. Inconclusive results and toxic doses are left out. Square brackets hold non-standard residues; d marks the D form. Peptide text beside a SMILES is read from it. * marks the point of attachment. ξ: configuration not given here. Cbz = O=C(OCc1ccccc1)*; ξL = CC(C)CC(N)C(=O)O

Test system: L1210 leukemia ip in BDF1 mice, survival T/C
Assay: NCI In Vivo Anticancer Drug Screen. Data for tumor model L1210 Leukemia (intraperitoneal) in B6D2F1 (BDF1) mice
Conditions: endpoint: mean survival time, higher = longer survival
Outline: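 Transplantable tumor model; survival measured in treated vs vehicle control mice. Value = treated/control.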

[1] = dose: 100.0 mg/kg/injection, schedule: Q01DX001 (ip), vehicle: carboxymethylcellulose (CMC)
[2] = dose: 200.0 mg/kg/injection, schedule: Q01DX001 (ip), vehicle: carboxymethylcellulose (CMC)
[3] = dose: 400.0 mg/kg/injection, schedule: Q01DX001 (ip), vehicle: carboxymethylcellulose (CMC)
[4] = dose: 100.0 mg/kg/injection, schedule: Q01DX009 (ip), vehicle: Klucel (hydroxypropylcellulose) (HPC)
[5] = dose: 200.0 mg/kg/injection, schedule: Q01DX009 (ip), vehicle: Klucel (hydroxypropylcellulose) (HPC)
[6] = dose: 100.0 mg/kg/injection, schedule: Q04DX003 (ip), vehicle: Klucel (hydroxypropylcellulose) (HPC)
[7] = dose: 200.0 mg/kg/injection, schedule: Q04DX003 (ip), vehicle: Klucel (hydroxypropylcellulose) (HPC)
[8] = dose: 400.0 mg/kg/injection, schedule: Q04DX003 (ip), vehicle: Klucel (hydroxypropylcellulose) (HPC)
[9] = dose: 100.0 mg/kg/injection, schedule: Q01DX001 (ip), vehicle: saline
[10] = dose: 200.0 mg/kg/injection, schedule: Q01DX001 (ip), vehicle: saline
[11] = dose: 400.0 mg/kg/injection, schedule: Q01DX001 (ip), vehicle: saline

In the case of CCCCCCCCCC(=O)N(C(C)C)C(C)C, the T/C [1] is reported as 100 % of control, the T/C (dose: 100.0 mg/kg/injection, schedule: Q01DX009 (ip), vehicle: carboxymethylcellulose (CMC)) is reported as 96 % of control and 106 % of control and the T/C (dose: 100.0 mg/kg/injection, schedule: Q04DX003 (ip), vehicle: carboxymethylcellulose (CMC)) is reported as 93 % of control. For the same molecule, the T/C [2] was 94 % of control, the T/C (dose: 200.0 mg/kg/injection, schedule: Q01DX009 (ip), vehicle: carboxymethylcellulose (CMC)) was 94 % of control and 100 % of control and the T/C (dose: 200.0 mg/kg/injection, schedule: Q04DX003 (ip), vehicle: carboxymethylcellulose (CMC)) was 95 % of control. The T/C [3] was 96 % of control, the T/C (dose: 400.0 mg/kg/injection, schedule: Q01DX009 (ip), vehicle: carboxymethylcellulose (CMC)) was 95 % of control and the T/C (dose: 400.0 mg/kg/injection, schedule: Q04DX003 (ip), vehicle: carboxymethylcellulose (CMC)) was 92 % of control.

With N#Cc1nc2c(nc1C#N)-c1ccccc1/C2=C1/C(=O)Cc2ccccc21 the T/C (dose: 25.0 mg/kg/injection, schedule: Q04DX002 (ip), vehicle: other) was 93 % of control and 90 % of control.

In the case of O=S(=O)(F)c1cc(Cl)ccc1C[P+](c1ccccc1)(c1ccccc1)c1ccccc1, the T/C (dose: 10.0 mg/kg/injection, schedule: Q04DX003 (ip), vehicle: saline) is reported as 97 % of control and the T/C (dose: 20.0 mg/kg/injection, schedule: Q04DX003 (ip), vehicle: saline) is reported as 89 % of control.

For C(=Nc1cccnc1)c1c[nH]c2ccccc12, the T/C [4] was 95 % of control, the T/C [5] was 86 % of control and the T/C (dose: 400.0 mg/kg/injection, schedule: Q01DX009 (ip), vehicle: Klucel (hydroxypropylcellulose) (HPC)) was 89 % of control.

In the case of CCN(CC)CCCC(C)Nc1c2ccc(Cl)cc2nc2ccc(OC)cc12 (stereo unspecified), the T/C (dose: 7.5 mg/kg/injection, schedule: Q01DX Z (ip), vehicle: saline) is reported as 93 % of control, the T/C (dose: 15.0 mg/kg/injection, schedule: Q01DX Z (ip), vehicle: saline) is reported as 95 % of control and the T/C (dose: 25.0 mg/kg/injection, schedule: Q01DX015 (ip), vehicle: carboxymethylcellulose (CMC)) is reported as 102 % of control. For the same molecule, the T/C (dose: 30.0 mg/kg/injection, schedule: Q01DX Z (ip), vehicle: saline) was 96 % of control, the T/C (dose: 50.0 mg/kg/injection, schedule: Q01DX015 (ip), vehicle: carboxymethylcellulose (CMC)) was 102 % of control and the T/C (dose: 50.0 mg/kg/injection, schedule: Q01DX Z (ip), vehicle: water) was 104 % of control. For the same molecule, the T/C [1] was 96 % of control, the T/C (dose: 100.0 mg/kg/injection, schedule: Q01DX015 (ip), vehicle: carboxymethylcellulose (CMC)) was 102 % of control and the T/C [2] was 116 % of control.

In the case of OCc1ccc(OCc2ccccc2)c(OCc2ccccc2)c1, the T/C (dose: 100.0 mg/kg/injection, schedule: Q01DX009 (ip), vehicle: other) is reported as 87 % of control, the T/C (dose: 100.0 mg/kg/injection, schedule: Q04DX003 (ip), vehicle: other) is reported as 94 % of control and the T/C (dose: 200.0 mg/kg/injection, schedule: Q04DX003 (ip), vehicle: other) is reported as 98 % of control. The T/C (dose: 400.0 mg/kg/injection, schedule: Q04DX003 (ip), vehicle: other) was 90 % of control.

O=C(Nc1cccc(C(F)(F)F)c1)C(Br)C(Br)c1ccccc1 (stereo unspecified) was tested, and the T/C [4] was 103 % of control and the T/C [5] was 100 % of control.

With COC(=O)C(CC(C)C)NC(=O)CNC(=O)CNC(=O)OCc1ccccc1 (stereo not drawn) (Cbz-Gly-Gly-[ξL]-OMe) the T/C [6] was 105 % of control, the T/C [7] was 96 % of control and the T/C [8] was 96 % of control.

With O=C1CN(C(=O)CN2C(=O)c3ccccc3C2=O)C2(CCCCC2)O1 the T/C (dose: 66.0 mg/kg/injection, schedule: Q04DX003 (ip), vehicle: saline sonified) was 94 % of control, the T/C (dose: 150.0 mg/kg/injection, schedule: Q04DX003 (ip), vehicle: saline sonified) was 101 % of control and the T/C (dose: 200.0 mg/kg/injection, schedule: Q04DX003 (ip), vehicle: saline sonified) was 95 % of control. The T/C (dose: 400.0 mg/kg/injection, schedule: Q04DX003 (ip), vehicle: saline sonified) was 97 % of control.

COc1ccc(CC(=O)C2C(=O)N(C)c3ccccc32)cc1OC (stereo unspecified) was tested, and the T/C (dose: 50.0 mg/kg/injection, schedule: Q01DX001 (ip), vehicle: saline) was 104 % of control, the T/C [9] was 102 % of control and the T/C [10] was 96 % of control. For the same molecule, the T/C [11] was 98 % of control.

With CCOC(=O)c1cnc(SC)nc1NN=C(C)C the T/C [6] was 92 % of control, the T/C [7] was 95 % of control and the T/C [8] was 93 % of control.

For Cc1cc(N(CCOS(C)(=O)=O)CCOS(C)(=O)=O)ccc1C=Nc1cccc(C(=O)O)c1, the T/C (dose: 2.5 mg/kg/injection, schedule: Q04DX003 (ip), vehicle: Klucel (hydroxypropylcellulose) (HPC)) was 111 % of control, the T/C (dose: 5.0 mg/kg/injection, schedule: Q04DX003 (ip), vehicle: Klucel (hydroxypropylcellulose) (HPC)) was 113 % of control and the T/C (dose: 10.0 mg/kg/injection, schedule: Q04DX003 (ip), vehicle: Klucel (hydroxypropylcellulose) (HPC)) was 122 % of control. For the same molecule, the T/C (dose: 20.0 mg/kg/injection, schedule: Q04DX003 (ip), vehicle: Klucel (hydroxypropylcellulose) (HPC)) was 120 % of control and the T/C (dose: 40.0 mg/kg/injection, schedule: Q04DX003 (ip), vehicle: Klucel (hydroxypropylcellulose) (HPC)) was 115 % of control.

COc1ccc(NCc2ccccc2C#N)c(OC)c1 was tested, and the T/C [6] was 103 % of control, the T/C [7] was 108 % of control and the T/C [8] was 103 % of control.

In the case of NC(=O)NCC(=O)O, the T/C (dose: 50.0 mg/kg/injection, schedule: Q01DX001 (ip), vehicle: Klucel (hydroxypropylcellulose) (HPC)) is reported as 96 % of control, the T/C (dose: 50.0 mg/kg/injection, schedule: Q01DX009 (ip), vehicle: Klucel (hydroxypropylcellulose) (HPC)) is reported as 91 % of control and the T/C (dose: 100.0 mg/kg/injection, schedule: Q01DX001 (ip), vehicle: Klucel (hydroxypropylcellulose) (HPC)) is reported as 100 % of control. The T/C [4] was 100 % of control, the T/C (dose: 200.0 mg/kg/injection, schedule: Q01DX001 (ip), vehicle: Klucel (hydroxypropylcellulose) (HPC)) was 100 % of control and the T/C [5] was 96 % of control. The T/C (dose: 400.0 mg/kg/injection, schedule: Q01DX001 (ip), vehicle: Klucel (hydroxypropylcellulose) (HPC)) was 94 % of control.

In the case of CC(C)=NNC(=O)c1ccc[n+](C)c1, the T/C [9] is reported as 102 % of control, the T/C [10] is reported as 98 % of control and the T/C [11] is reported as 100 % of control.

In the case of CC(C)=CCC(=O)Nc1ccc(Cl)nn1, the T/C [6] is reported as 86 % of control, the T/C [7] is reported as 91 % of control and the T/C [8] is reported as 100 % of control.

For CN(C)N=Nc1cn(C)c(=O)n(C)c1=O, the T/C (dose: 150.0 mg/kg/injection, schedule: Q04DX003 (ip), vehicle: water) was 106 % of control.

For O=C(O)C1C2C=CC21 (stereo unspecified), the T/C (dose: 100.0 mg/kg/injection, schedule: Q01DX001 (ip), vehicle: other) was 96 % of control, the T/C (dose: 200.0 mg/kg/injection, schedule: Q01DX001 (ip), vehicle: other) was 101 % of control and the T/C (dose: 400.0 mg/kg/injection, schedule: Q01DX001 (ip), vehicle: other) was 102 % of control.

With NC(N)=NN=C(C1CC1)C1CC1 the T/C (dose: 15.0 mg/kg/injection, schedule: Q01DX Z (ip), vehicle: carboxymethylcellulose (CMC)) was 103 % of control, the T/C (dose: 30.0 mg/kg/injection, schedule: Q01DX Z (ip), vehicle: carboxymethylcellulose (CMC)) was 89 % of control and the T/C (dose: 60.0 mg/kg/injection, schedule: Q01DX Z (ip), vehicle: carboxymethylcellulose (CMC)) was 95 % of control. For the same molecule, the T/C (dose: 120.0 mg/kg/injection, schedule: Q01DX Z (ip), vehicle: carboxymethylcellulose (CMC)) was 92 % of control and 96 % of control, the T/C (dose: 120.0 mg/kg/injection, schedule: Q01DX Z (oral), vehicle: carboxymethylcellulose (CMC)) was 105 % of control and the T/C (dose: 240.0 mg/kg/injection, schedule: Q01DX Z (ip), vehicle: carboxymethylcellulose (CMC)) was 92 % of control and 104 % of control. For the same molecule, the T/C (dose: 240.0 mg/kg/injection, schedule: Q01DX Z (oral), vehicle: carboxymethylcellulose (CMC)) was 105 % of control, the T/C (dose: 480.0 mg/kg/injection, schedule: Q01DX Z (ip), vehicle: carboxymethylcellulose (CMC)) was 104 % of control and the T/C (dose: 480.0 mg/kg/injection, schedule: Q01DX Z (oral), vehicle: carboxymethylcellulose (CMC)) was 103 % of control. For the same molecule, the T/C (dose: 960.0 mg/kg/injection, schedule: Q01DX Z (oral), vehicle: carboxymethylcellulose (CMC)) was 100 % of control.

In the case of CSc1nc(C)c(C=O)s1, the T/C [1] is reported as 100 % of control, the T/C [2] is reported as 96 % of control and the T/C [3] is reported as 94 % of control.

In the case of S=C(Nc1ccccc1)N(C1CCCCC1)C1CCCCC1, the T/C (dose: 400.0 mg/kg/injection, schedule: Q01DX009 (ip), vehicle: saline with Tween-80) is reported as 158 % of control.

In the case of Oc1c(Cl)cc(Cl)c(Cl)c1CN1CCOCC1, the T/C (dose: 55.0 mg/kg/injection, schedule: Q01DX Z (ip), vehicle: methylcellulose (MC)) is reported as 98 % of control, the T/C (dose: 83.0 mg/kg/injection, schedule: Q01DX Z (ip), vehicle: methylcellulose (MC)) is reported as 116 % of control and the T/C (dose: 125.0 mg/kg/injection, schedule: Q01DX Z (ip), vehicle: methylcellulose (MC)) is reported as 104 % of control.
